Patent US11266654B2 (AI Therapeutics, Inc., priority 2014, dated 2022)

Key:
[1] = test system: 122 human cancer cell lines; test: Cancer cell line sensitivity screen (cell viability); assay type: cell-based; details: non-Hodgkin's Lymphoma cell lines; sensitive if IC50 less than 500 nM
Excerpt: (§1) 35 cell lines were identified as sensitive to apilimod-induced cytotoxicity.
The most sensitive of those tested were non-Hodgkin's Lymphoma (NHL) cell lines. […] NHL represents a diverse group of hematopoietic malignancies that vary in severity, with subtypes ranging from slow growing to aggressive. Subtypes of NHL include diffuse large B cell lymphoma (DLBCL), Burkitt's lymphoma, mantle lymphoma, and follicular B cell lymphoma. DLBCL is divided into two subtypes, GCB and ABC, based on gene expression and cell of origin. The GCB are germinal center B cell type, arising from normal germinal center B cells, and the ABC are activated B cell type, arising from post-germinal center B cells in the process of differentiating into plasma cells.

[2] = test system: IL-12/IL-23 synthesis; details: psoriasis, oral administration, open label (Wada et al. 2012); cited from earlier work
[3] = test system: HELA; details: HELA (WO 2006/128129); cited from earlier work
[4] = test system: Jurkat; details: Jurkat (WO 2006/128129); cited from earlier work
[5] = test system: representative cancer cell line; test: Vacuolization of live cells; assay type: cell-based; details: 500 nM, 24 h
[6] = test system: H4 neuroglioma cell line; test: Cyto-ID Autophagy detection; assay type: cell-based, Human; details: 72 hours of treatment
Excerpt: Autophagy was quantified using the Cyto-ID Autophagy detection kit (Enzo) according to manufacturer's directions.

[7] = test system: THP-1; details: THP-1 (WO 2006/128129); cited from earlier work
[8] = active Crohn's disease, placebo-controlled (Sands et al. 2010); cited from earlier work
[9] = test system: U937; details: U937 (WO 2006/128129); cited from earlier work
[10] = test system: Normal lung fibroblasts; test: Cytotoxicity on normal cells; assay type: cell-based; details: concentrations as high as 10 micromolar
Excerpt: as §1

[11] = test system: peripheral blood mononuclear cells; details: peripheral blood mononuclear cells (Wada et al. 2007); cited from earlier work
[12] = test system: diffuse large B cell lymphoma cells; test: Apotox-Glo Triplex assay (viability, apoptosis, necrosis); assay type: cell-based; details: 48 hours
Procedure: Apoptosis was quantified and distinguished from necrosis using the Apotox-Glo Triplex assay (Promega, Inc.) according to the manufacturer's instructions. In this assay, viability, apoptosis, and necrosis are assessed simultaneously using three different markers (GF-AFC, Caspase-3/7, and bis-AAF-R110, respectively).

[13] = test system: SUDHL-4 cells; test: Screen of 93-drug library with and without apilimod (CellTiter-Glo 72 h); assay type: cell-based; details: Homo sapiens, SU-DHL-4
Excerpt: A manually curated library of 93 drugs including both FDA approved and unapproved drugs was used in the screen.

**Q.** Which “percentage of NHL cell lines tested that were sensitive” value [1] does the source give for Cc1cccc(/C=N/Nc2cc(N3CCOCC3)nc(OCCc3ccccn3)n2)c1 [apilimod] here?
**A.** over 50%

**Q.** What about the “immunomodulatory activity in patients” value [2] of the same compound?
**A.** showed immunomodulatory activity

**Q.** And the cytotoxicity [3]?
**A.** not cytotoxic

**Q.** What about the cytotoxicity [4] of the same compound?
**A.** not cytotoxic

**Q.** And the vacuolization [5]?
**A.** induces vacuolization

**Q.** And the “autophagy (autophagic vacuoles)” value [6]?
**A.** induced autophagy in a dose-dependent manner

**Q.** And the cytotoxicity [7]?
**A.** not cytotoxic

**Q.** And the clinical efficacy [8]?
**A.** did not demonstrate efficacy over placebo

**Q.** And the cytotoxicity [9]?
**A.** not cytotoxic

**Q.** What about the apilimod-induced cytotoxicity [10] of the same compound?
**A.** insensitive

**Q.** What about the cytotoxicity [11] of the same compound?
**A.** not cytotoxic

**Q.** What about the “apoptosis (Caspase-3/7 marker)” value [12] of the same compound?
**A.** increased apoptosis

**Q.** What about the IC20 [13] of the same compound?
**A.** 10 nM
